{"source": "paper PMC6372602", "about": "“On-target and off-target effects of novel orthosteric and allosteric activators of GPR84” (Scientific Reports, 2019)", "key": {"mouse GPR35": {"target": "T1, mouse GPR35 (Mus musculus, UniProt Q9ES90)", "T1 construct": "C-terminal eYFP tag, HEK293 cells co-transfected with luciferase-tagged β-arrestin-2", "test": "β-arrestin-2 recruitment BRET, HEK293 cells", "type": "cell-based", "details": "agonist mode"}, "mouse GPR84-Gαi2 [1]": {"target": "T2, mouse GPR84-Gαi2 (Mus musculus, UniProt Q8CIM5)", "T2 construct": "N-terminal FLAG-tagged mouse GPR84 fused to Gαi2 (transducer / reporter; silent C636T in Gαi2); doxycycline-inducible Flp-In T-REx 293 cells; membranes", "test": "[…]GTPγS binding, membranes", "type": "biochemical", "details": "[…] °C, pH […] GDP"}, "[2]": {"target": "T3, mouse GPR84 (RAW264.7 cells) (Mus musculus, UniProt Q8CIM5)", "T3 sequence (Q8CIM5 whole entry)": "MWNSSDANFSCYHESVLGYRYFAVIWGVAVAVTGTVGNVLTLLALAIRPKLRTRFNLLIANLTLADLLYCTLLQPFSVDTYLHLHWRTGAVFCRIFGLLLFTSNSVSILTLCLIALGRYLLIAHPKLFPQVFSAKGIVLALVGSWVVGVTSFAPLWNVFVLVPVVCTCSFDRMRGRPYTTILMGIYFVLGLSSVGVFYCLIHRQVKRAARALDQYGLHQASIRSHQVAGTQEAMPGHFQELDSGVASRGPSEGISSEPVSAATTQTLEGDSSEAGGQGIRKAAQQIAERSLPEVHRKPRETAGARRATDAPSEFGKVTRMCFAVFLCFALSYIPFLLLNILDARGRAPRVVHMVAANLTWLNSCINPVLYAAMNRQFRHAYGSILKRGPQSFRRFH", "test": "[…]GTPγS binding, membranes", "type": "biochemical", "details": "agonist, LPS-treated cells, […] °C, pH […] GDP"}, "human GPR35a": {"target": "T4, human GPR35a (Homo sapiens, UniProt Q9HC97)", "T4 construct": "gene GPR35; C-terminal eYFP tag, HEK293 cells co-transfected with luciferase-tagged β-arrestin-2", "T4 sequence (Q9HC97 whole entry)": "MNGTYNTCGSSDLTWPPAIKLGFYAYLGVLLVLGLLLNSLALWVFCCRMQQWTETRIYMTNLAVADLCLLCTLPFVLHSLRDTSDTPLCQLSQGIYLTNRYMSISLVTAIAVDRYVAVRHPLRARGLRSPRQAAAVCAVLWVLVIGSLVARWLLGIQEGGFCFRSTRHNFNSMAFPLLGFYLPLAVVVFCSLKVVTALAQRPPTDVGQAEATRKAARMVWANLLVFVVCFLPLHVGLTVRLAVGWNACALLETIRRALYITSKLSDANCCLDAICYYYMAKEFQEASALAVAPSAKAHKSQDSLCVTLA", "test": "β-arrestin-2 recruitment BRET, HEK293 cells", "type": "cell-based", "details": "agonist mode"}, "human GPR84-Gαi2 [3]": {"target": "T5, human GPR84-Gαi2 (Homo sapiens, UniProt Q9NQS5)", "T5 construct": "doxycycline-inducible Flp-In T-REx 293 cells; membranes", "T5 sequence (Q9NQS5 whole entry)": "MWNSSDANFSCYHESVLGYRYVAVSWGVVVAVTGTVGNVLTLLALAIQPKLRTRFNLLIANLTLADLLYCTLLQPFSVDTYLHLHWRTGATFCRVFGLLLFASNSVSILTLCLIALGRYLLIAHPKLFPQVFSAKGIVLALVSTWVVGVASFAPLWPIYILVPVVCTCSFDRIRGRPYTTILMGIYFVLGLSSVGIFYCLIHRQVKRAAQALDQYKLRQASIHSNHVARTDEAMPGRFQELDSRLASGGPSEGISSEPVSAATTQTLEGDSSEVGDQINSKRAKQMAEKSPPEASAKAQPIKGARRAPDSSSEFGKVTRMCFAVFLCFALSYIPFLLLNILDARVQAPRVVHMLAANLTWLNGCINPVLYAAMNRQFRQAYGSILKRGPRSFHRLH", "test": "[…]GTPγS binding, membranes", "type": "biochemical", "details": "partial agonist, allosteric; […] °C, pH […] GDP"}, "mouse GPR84-Gαi2 [4]": {"target": "T2, mouse GPR84-Gαi2", "test": "inhibition of agonist-stimulated […]GTPγS binding, membranes", "type": "biochemical", "details": "antagonist; versus EC80 2-HTP"}, "[5]": {"target": "T3, mouse GPR84 (RAW264.7 cells)", "test": "inhibition of agonist-stimulated […]GTPγS binding, membranes", "type": "biochemical", "details": "antagonist; LPS-treated cells; versus EC80 2-HTP"}, "GPR84 (THP-1 cells) [6]": {"target": "T6, GPR84 (THP-1 cells) (Homo sapiens, UniProt Q9NQS5)", "T6 construct": "endogenous receptor in membranes of LPS-treated THP-1 monocytes", "T6 sequence (Q9NQS5 whole entry)": "as above", "test": "inhibition of agonist-stimulated […]GTPγS binding, membranes", "type": "biochemical", "details": "antagonist, non-competitive; LPS-treated cells; versus EC80 2-HTP"}, "human GPR84-Gαi2 [7]": {"target": "T5, human GPR84-Gαi2", "test": "inhibition of agonist-stimulated […]GTPγS binding, membranes", "type": "biochemical", "details": "antagonist, non-competitive; versus EC80 2-HTP"}, "GPR84 (THP-1 cells) [8]": {"target": "T6, GPR84 (THP-1 cells)", "test": "saturation radioligand binding, membranes", "details": "labelled compound; antagonist; LPS-treated cells; […] °C, pH […]"}}, "data": [{"molecule": "CCCCCCSc1nc(O)cc(O)n1", "note": "[2-HTP, 2-(hexylthiol)pyrimidine-4,6 diol]", "values": [{"measurement": "β-arrestin-2 recruitment BRET, HEK293 cells", "setting": "mouse GPR35", "value": "neither PSB-16671 nor 2-HTP was able to activate mouse GPR35"}, {"measurement": "pEC50", "setting": "mouse GPR84-Gαi2 [1]; agonist", "value": "7.52 ± 0.11"}, {"measurement": "pEC50", "setting": "[2]", "value": "7.58 ± 0.08"}, {"measurement": "β-arrestin-2 recruitment BRET, HEK293 cells", "setting": "human GPR35a", "value": "2-HTP was also unable to activate human GPR35"}]}, {"molecule": "c1ccc2c(Cc3c[nH]c4ccccc34)c[nH]c2c1", "note": "[DIM]", "values": [{"measurement": "pEC50", "setting": "mouse GPR84-Gαi2 [1]; partial agonist, allosteric", "value": "5.37 ± 0.08"}, {"measurement": "EC50", "setting": "human GPR84-Gαi2 [3]", "value": "Equivalent studies using DIM confirmed the higher potency of PSB-16671"}]}, {"molecule": "Fc1cc(F)c2[nH]cc(Cc3c[nH]c4c(F)cc(F)cc34)c2c1", "note": "[PSB-16671, di(5,7-difluoro-1H-indole-3-yl)methane]", "values": [{"measurement": "β-arrestin-2 recruitment BRET, HEK293 cells", "setting": "mouse GPR35", "value": "neither PSB-16671 nor 2-HTP was able to activate mouse GPR35"}, {"measurement": "pEC50", "setting": "mouse GPR84-Gαi2 [1]; agonist, allosteric", "value": "6.53 ± 0.07"}, {"measurement": "pEC50", "setting": "[2]; allosteric", "value": "6.75 ± 0.10"}]}, {"molecule": "O=c1nc(OCC2COCCO2)cc2n1CCc1cc(C#CCNc3ccccc3)ccc1-2", "note": "(centres unmarked) [compound 107, 2-([1,4]dioxan-2-ylmethoxy)-9-(3-phenylamino-prop-1-ynyl)-6,7-dihydro-pyrimido[6,1-a]isoquinolin-4-one]", "values": [{"measurement": "pIC50", "setting": "mouse GPR84-Gαi2 [4]", "value": "6.90 ± 0.05"}, {"measurement": "pIC50", "setting": "[5]", "value": "6.50 ± 0.06"}, {"measurement": "pIC50", "setting": "GPR84 (THP-1 cells) [6]", "value": "7.86 ± 0.02"}, {"measurement": "pIC50", "setting": "human GPR84-Gαi2 [7]", "value": "8.14 ± 0.06"}]}, {"molecule": "[^3H]9543", "values": [{"measurement": "Kd", "setting": "GPR84 (THP-1 cells) [8]", "value": "0.18 ± 0.02", "unit": "nM"}]}]}
